Experimental findings from the NIST ThermoML archive (doi:10.1021/je800999s) are described below.

Numbers after ± are expanded uncertainties.

The series can be described thus: molar heat capacity at constant pressure. Conditions: 101 kPa, Liquid, Large sample (1 g) DSC.

On to `O=CN1CCOCC1` [N-formylmorpholine], for which the “molar heat capacity at constant pressure” value stood at 185 ± 8 J/K/mol (303.15 K); 186 ± 8 J/K/mol (308.15 K); 188 ± 8 J/K/mol (313.15 K); 189 ± 8 J/K/mol (318.15 K); 191 ± 8 J/K/mol (323.15 K); 193 ± 8 J/K/mol (328.15 K). Moreover, the “molar heat capacity at constant pressure” value worked out at 195 ± 8 J/K/mol (333.15 K); 197 ± 8 J/K/mol (338.15 K); 200 ± 9 J/K/mol (343.15 K); 201 ± 9 J/K/mol (348.15 K); 202 ± 9 J/K/mol (353.15 K).
`O=S1(=O)CCCC1` [sulfolane]: the “molar heat capacity at constant pressure” value came out at 182 ± 8 J/K/mol (303.15 K); 184 ± 8 J/K/mol (308.15 K); 185 ± 8 J/K/mol (313.15 K); 186 ± 8 J/K/mol (318.15 K); 188 ± 8 J/K/mol (323.15 K); 189 ± 8 J/K/mol (328.15 K). Besides, the “molar heat capacity at constant pressure” value is, setting by setting: (333.15 K) 191 ± 8 J/K/mol; (338.15 K) 193 ± 8 J/K/mol; (343.15 K) 194 ± 8 J/K/mol; (348.15 K) 197 ± 8 J/K/mol; (353.15 K) 199 ± 8 J/K/mol.
On to `CN1CCCC1=O` [N-methylpyrrolidone], for which the “molar heat capacity at constant pressure” value is listed as 166 ± 7 J/K/mol (303.15 K); 167 ± 7 J/K/mol (308.15 K); 168 ± 7 J/K/mol (313.15 K); 169 ± 7 J/K/mol (318.15 K); 170 ± 7 J/K/mol (323.15 K); 172 ± 7 J/K/mol (328.15 K). Further, the “molar heat capacity at constant pressure” value is reported as 174 ± 7 J/K/mol (333.15 K); 175 ± 7 J/K/mol (338.15 K); 176 ± 7 J/K/mol (343.15 K); 177 ± 8 J/K/mol (348.15 K); 178 ± 8 J/K/mol (353.15 K).
In the case of `COCCOCCOCCOC` [2,5,8,11-tetraoxadodecane], the “molar heat capacity at constant pressure” value turned out to be 359 ± 15 J/K/mol (303.15 K); 364 ± 15 J/K/mol (308.15 K); 366 ± 16 J/K/mol (313.15 K); 368 ± 16 J/K/mol (318.15 K); 370 ± 16 J/K/mol (323.15 K); 371 ± 16 J/K/mol (328.15 K). Further, the “molar heat capacity at constant pressure” value is reported as 373 ± 16 J/K/mol (333.15 K); 375 ± 16 J/K/mol (338.15 K); 379 ± 16 J/K/mol (343.15 K); 381 ± 16 J/K/mol (348.15 K); 382 ± 16 J/K/mol (353.15 K).
